Reference: ChEMBL document CHEMBL5729301, “ASK1 inhibitor compounds and uses thereof” (2022)

Target: T1, Mitogen-activated protein kinase kinase kinase 5 (Homo sapiens, UniProt Q99683)
T1 sequence (Q99683 whole entry): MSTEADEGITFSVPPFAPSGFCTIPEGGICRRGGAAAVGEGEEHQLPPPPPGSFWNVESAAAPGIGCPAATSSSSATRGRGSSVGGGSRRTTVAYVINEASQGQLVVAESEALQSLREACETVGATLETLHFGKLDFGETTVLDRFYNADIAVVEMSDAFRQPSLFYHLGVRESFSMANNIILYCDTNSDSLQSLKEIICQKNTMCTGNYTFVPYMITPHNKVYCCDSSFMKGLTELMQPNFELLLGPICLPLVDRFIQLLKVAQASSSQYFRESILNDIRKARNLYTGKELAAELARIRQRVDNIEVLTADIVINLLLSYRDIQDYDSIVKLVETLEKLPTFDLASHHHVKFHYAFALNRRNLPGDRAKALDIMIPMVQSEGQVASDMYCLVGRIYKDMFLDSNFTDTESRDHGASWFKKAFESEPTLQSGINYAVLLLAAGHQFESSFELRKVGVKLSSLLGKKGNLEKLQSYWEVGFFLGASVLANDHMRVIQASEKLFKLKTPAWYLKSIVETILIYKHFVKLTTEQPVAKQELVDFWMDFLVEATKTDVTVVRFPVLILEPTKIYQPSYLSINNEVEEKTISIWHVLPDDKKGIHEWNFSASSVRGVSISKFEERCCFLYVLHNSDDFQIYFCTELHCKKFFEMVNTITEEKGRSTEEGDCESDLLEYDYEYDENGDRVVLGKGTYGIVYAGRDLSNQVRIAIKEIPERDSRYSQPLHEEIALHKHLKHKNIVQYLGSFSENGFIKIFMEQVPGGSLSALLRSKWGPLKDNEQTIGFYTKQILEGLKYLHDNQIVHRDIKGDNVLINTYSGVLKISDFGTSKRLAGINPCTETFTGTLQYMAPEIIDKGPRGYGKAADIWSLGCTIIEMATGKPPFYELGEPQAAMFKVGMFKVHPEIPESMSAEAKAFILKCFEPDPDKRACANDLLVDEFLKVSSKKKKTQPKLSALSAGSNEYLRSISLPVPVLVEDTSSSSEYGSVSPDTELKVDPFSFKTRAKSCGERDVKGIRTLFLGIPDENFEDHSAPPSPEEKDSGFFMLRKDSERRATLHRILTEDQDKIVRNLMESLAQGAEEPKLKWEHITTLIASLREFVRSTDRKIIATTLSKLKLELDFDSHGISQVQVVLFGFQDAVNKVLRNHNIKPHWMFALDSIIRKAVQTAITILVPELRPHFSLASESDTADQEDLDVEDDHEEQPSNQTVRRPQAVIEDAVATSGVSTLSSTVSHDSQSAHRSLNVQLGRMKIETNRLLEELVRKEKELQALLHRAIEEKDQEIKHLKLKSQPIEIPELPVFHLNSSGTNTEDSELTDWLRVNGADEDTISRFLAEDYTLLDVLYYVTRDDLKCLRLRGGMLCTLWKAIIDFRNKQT
Assay: Kinase Assay: The ASK1 enzymatic assay was run following Promega ASK1 Kinase Enzyme System (Cat #V3881). The kit provides the protocol, enzymes and all reagents necessary to run an assay.The compounds, enzyme, substrate and ATP were diluted in provided assay buffer. The final concentration of the enzyme was 50 nM, substrate (Myelin basic protein) 1 μg/mL and ATP 10 μM. The compound and the enzyme were pre-incubated in a 384-well white solid bottom plate (Greiner, Cat #784075) for 10 minutes. After incubation, the substrate and ATP were added and incubated for an additional 60 minutes. After 60 minutes, ADP-Glo™ was added and the plate was incubated for another 40 minutes. After 40 minutes, Kinase Detection Reagent was added and the plate was incubated for 45 minutes. After 45 minutes, the plate was read on a Perkin Elmer EnVision using luminescence read (0.5 seconds/well).

- IC50: < 1000 nM
SMILES: CC(=O)Nc1cccc(-c2cc3c(s2)C(=O)N(c2cccc(-c4nncn4C4CC4)n2)C3)c1
